In patent US9296725B2, “Heterocyclyl pyrimidine analogues as TYK2 inhibitors” (Cellzome Limited, priority 2012, dated 2016):

What was measured:
[1] = molecular target: T1, TYK2 (Homo sapiens, UniProt P29597); test: Kinobeads assay, TYK2 (competition binding in mixed Molt4/Ramos cell lysate, dot blot detection); settings: Kinobeads assay, Molt4/Ramos lysate; read-out: TYK2 Band (Kinobeads assay potency, IC50)
T1 construct: endogenous in cells; host or cells: Molt4 (ATCC CRL-1582) and Ramos (ATCC CRL-1596), mixed lysate 1:2
Summary of the method: (§1)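 JAK2 and TYK2 retained on Kinobeads (immobilized aminopyrido-pyrimidine ligand) from 1:2 Molt4:Ramos lysate (10 mg/mL) were quantified by antibody dot blot (Odyssey infrared) after 3 h cold incubation with compound. Nine-step 1:3 dilution series; IC50 calculated from curves.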

[2] = molecular target: T2, JAK2 (Homo sapiens, UniProt O60674); test: Kinobeads assay, JAK2 (competition binding in mixed Molt4/Ramos cell lysate, dot blot detection); settings: read-out: JAK2 Band (Kinobeads assay potency, IC50)
T2 construct: endogenous in cells; host or cells: Molt4 (ATCC CRL-1582) and Ramos (ATCC CRL-1596), mixed lysate 1:2
Summary of the method: as §1

T2 sequence (O60674 whole entry): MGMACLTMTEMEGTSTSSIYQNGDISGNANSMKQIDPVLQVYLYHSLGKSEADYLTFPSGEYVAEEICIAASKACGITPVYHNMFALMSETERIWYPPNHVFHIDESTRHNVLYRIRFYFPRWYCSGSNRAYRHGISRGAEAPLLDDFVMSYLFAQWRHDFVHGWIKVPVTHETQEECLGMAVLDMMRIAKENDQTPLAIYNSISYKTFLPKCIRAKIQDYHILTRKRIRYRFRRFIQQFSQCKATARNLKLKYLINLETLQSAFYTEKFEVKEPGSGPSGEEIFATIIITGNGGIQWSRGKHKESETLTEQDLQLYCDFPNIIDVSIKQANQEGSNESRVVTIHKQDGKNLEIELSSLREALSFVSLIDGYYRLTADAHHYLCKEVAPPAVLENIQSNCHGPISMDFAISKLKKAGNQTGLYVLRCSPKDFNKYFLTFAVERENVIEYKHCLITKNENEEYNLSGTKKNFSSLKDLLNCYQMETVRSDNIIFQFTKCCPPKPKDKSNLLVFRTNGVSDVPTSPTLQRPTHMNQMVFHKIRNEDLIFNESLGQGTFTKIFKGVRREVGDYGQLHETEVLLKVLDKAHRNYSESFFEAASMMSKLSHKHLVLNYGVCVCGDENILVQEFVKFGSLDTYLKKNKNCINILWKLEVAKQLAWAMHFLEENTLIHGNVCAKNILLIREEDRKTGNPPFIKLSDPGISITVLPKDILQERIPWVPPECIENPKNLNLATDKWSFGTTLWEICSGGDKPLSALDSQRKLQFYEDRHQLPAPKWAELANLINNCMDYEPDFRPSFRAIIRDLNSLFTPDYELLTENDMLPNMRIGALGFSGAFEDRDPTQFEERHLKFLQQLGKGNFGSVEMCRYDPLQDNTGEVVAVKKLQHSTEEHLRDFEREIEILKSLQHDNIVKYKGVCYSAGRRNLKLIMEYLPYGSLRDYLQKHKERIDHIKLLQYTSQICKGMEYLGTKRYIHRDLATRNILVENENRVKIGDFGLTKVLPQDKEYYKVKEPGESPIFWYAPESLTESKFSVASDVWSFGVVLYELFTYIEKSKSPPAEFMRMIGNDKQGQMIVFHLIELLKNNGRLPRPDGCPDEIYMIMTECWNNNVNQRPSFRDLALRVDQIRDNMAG
T1 sequence (P29597 whole entry): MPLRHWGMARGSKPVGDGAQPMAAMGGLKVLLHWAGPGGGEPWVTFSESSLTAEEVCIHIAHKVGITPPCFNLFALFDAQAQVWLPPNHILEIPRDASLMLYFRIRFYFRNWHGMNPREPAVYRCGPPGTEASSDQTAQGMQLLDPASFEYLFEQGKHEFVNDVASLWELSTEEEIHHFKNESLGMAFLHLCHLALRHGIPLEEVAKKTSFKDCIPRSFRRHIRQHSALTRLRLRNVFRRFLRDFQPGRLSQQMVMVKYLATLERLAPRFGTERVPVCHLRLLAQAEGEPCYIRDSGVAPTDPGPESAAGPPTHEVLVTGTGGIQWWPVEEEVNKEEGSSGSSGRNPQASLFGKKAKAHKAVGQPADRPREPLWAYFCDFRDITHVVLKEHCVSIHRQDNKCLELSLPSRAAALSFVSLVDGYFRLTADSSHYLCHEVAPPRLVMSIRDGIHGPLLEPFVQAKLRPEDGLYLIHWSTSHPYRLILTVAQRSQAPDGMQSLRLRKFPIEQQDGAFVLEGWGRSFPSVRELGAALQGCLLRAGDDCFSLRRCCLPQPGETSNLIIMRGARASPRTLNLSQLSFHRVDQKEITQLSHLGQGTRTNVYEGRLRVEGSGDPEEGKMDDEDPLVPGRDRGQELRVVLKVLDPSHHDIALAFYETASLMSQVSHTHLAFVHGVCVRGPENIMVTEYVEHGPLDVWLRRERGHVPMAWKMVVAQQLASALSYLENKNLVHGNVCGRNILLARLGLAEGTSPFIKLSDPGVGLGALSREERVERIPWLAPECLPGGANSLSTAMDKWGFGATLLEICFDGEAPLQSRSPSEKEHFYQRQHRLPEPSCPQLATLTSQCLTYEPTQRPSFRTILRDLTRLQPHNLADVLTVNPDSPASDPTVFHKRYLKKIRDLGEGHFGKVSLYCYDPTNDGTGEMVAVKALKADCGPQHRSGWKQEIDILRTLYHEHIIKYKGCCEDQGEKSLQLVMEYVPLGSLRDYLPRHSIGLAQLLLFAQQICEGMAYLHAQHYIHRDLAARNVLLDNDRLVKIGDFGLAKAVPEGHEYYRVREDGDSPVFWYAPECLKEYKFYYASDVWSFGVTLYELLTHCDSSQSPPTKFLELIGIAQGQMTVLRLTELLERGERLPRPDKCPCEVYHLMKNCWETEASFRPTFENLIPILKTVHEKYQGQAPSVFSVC

| SMILES | IC50 [1] | IC50 [2] |
| --- | --- | --- |
| Cc1cnc(Nc2cnn(CC(=O)N3CCOCC3)c2)nc1NCc1c(F)cccc1F [Example I-305] | ≤ 10 nM | 100 to 1000 nM |
| Cc1cnc(Nc2cnn(CC(=O)O)c2)nc1NCc1c(F)cc(F)cc1F [Example I-306] | 10 to 100 nM | 1000 to 10000 nM |
| O=C(O)Cn1cc(Nc2ncc(F)c(NCc3c(F)cc(F)cc3F)n2)cn1 [Example I-307] | 10 to 100 nM | > 10000 nM |
| O=C(Cn1cc(Nc2ncc(F)c(NCc3c(F)cc(F)cc3F)n2)cn1)NC1CCC1 [Example I-308] | 10 to 100 nM | > 10000 nM |
| CC1(C)COCCN1C(=O)Cn1cc(Nc2ncc(F)c(NCc3c(F)cc(F)cc3F)n2)cn1 [Example I-309] | 10 to 100 nM | 1000 to 10000 nM |
| Cn1cc(Nc2nccc(NCc3c(F)cc(F)cc3F)n2)cn1 [Example I-310] | 100 to 1000 nM | > 10000 nM |
| NC(=O)Cn1cc(Nc2nccc(NCc3c(F)cc(F)cc3F)n2)cn1 [Example I-311] | 10 to 100 nM | 1000 to 10000 nM |
| Cn1cc(Nc2nccc(NCc3c(F)cccc3F)n2)cn1 [Example I-312] | 100 to 1000 nM | > 10000 nM |
| NC(=O)Cn1cc(Nc2nccc(NCc3c(F)cccc3F)n2)cn1 [Example I-313] | 10 to 100 nM | 1000 to 10000 nM |
| COc1cc(F)c(CNc2nc(Nc3cnn(C)c3)ncc2C)c(F)c1 [Example I-314] | 10 to 100 nM | 1000 to 10000 nM |
| COc1cc(F)c(CNc2nc(Nc3cnn(CC(N)=O)c3)ncc2C)c(F)c1 [Example I-315] | 10 to 100 nM | 1000 to 10000 nM |
| CC(C)N(C)C(=O)Cn1cc(Nc2nccc(NCc3c(F)cc(F)cc3F)n2)cn1 [Example I-317] | 10 to 100 nM | > 10000 nM |
| COc1ccc(F)c(CNc2nc(Nc3cnn(C)c3)ncc2Cl)c1F [Example I-319] | 10 to 100 nM | 1000 to 10000 nM |
| COc1ccc(F)c(CNc2nc(Nc3cnn(CCO)c3)ncc2Cl)c1F [Example I-320] | 10 to 100 nM | 100 to 1000 nM |
| COc1ccccc1CNc1nc(Nc2cnn(CC(N)=O)c2)ncc1Cl [Example I-321] | 100 to 1000 nM | 1000 to 10000 nM |
| OCCn1cc(Nc2ncc(Cl)c(NCc3cccc(OC(F)F)c3)n2)cn1 [Example I-322] | 10 to 100 nM | 1000 to 10000 nM |
| OCCn1cc(Nc2ncc(Cl)c(NCc3c(Cl)cccc3Cl)n2)cn1 [Example I-323] | 10 to 100 nM | 100 to 1000 nM |
| NC(=O)Cn1cc(Nc2ncc(Cl)c(NCc3c(Cl)cccc3Cl)n2)cn1 [Example I-324] | 10 to 100 nM | 100 to 1000 nM |
| CNC(=O)Cn1cc(Nc2ncc(Cl)c(NCc3c(Cl)cccc3Cl)n2)cn1 [Example I-325] | 10 to 100 nM | 1000 to 10000 nM |

| SMILES | IC50 [1] | IC50 [2] |
| --- | --- | --- |
| CN(C)C(=O)Cn1cc(Nc2ncc(Cl)c(NCc3c(Cl)cccc3Cl)n2)cn1 [Example I-326] | 10 to 100 nM | 100 to 1000 nM |
| NC(=O)Cn1cc(Nc2ncc(F)c(NCc3c(Cl)cccc3Cl)n2)cn1 [Example I-328] | 10 to 100 nM | 1000 to 10000 nM |
| CNC(=O)Cn1cc(Nc2ncc(F)c(NCc3c(Cl)cccc3Cl)n2)cn1 [Example I-329] | 10 to 100 nM | 1000 to 10000 nM |
| Cc1cnc(Nc2cnn(CC(=O)N(C)C)c2)nc1NCc1cc(F)cc(C(F)(F)F)c1 [Example I-330] | 100 to 1000 nM | 1000 to 10000 nM |
| CN(C)C(=O)Cn1cc(Nc2ncc(F)c(NCc3cc(F)cc(C(F)(F)F)c3)n2)cn1 [Example I-331] | 100 to 1000 nM | 1000 to 10000 nM |
| O=C(Cn1cc(Nc2ncc(F)c(NCc3cc(F)cc(C(F)(F)F)c3)n2)cn1)N1CCOCC1 [Example I-332] | 100 to 1000 nM | 1000 to 10000 nM |
| OCCn1cc(Nc2ncc(Cl)c(NCc3cccc(F)c3C(F)(F)F)n2)cn1 [Example I-333] | 100 to 1000 nM | 1000 to 10000 nM |
| CC(C)Oc1cccc(CNc2nc(Nc3cnn(CCO)c3)ncc2Cl)c1 [Example I-334] | 100 to 1000 nM | 1000 to 10000 nM |
| O=C(Cn1cc(Nc2ncc(Cl)c(NCc3c(F)ccc(F)c3F)n2)cn1)NC1CC1 [Example I-335] | ≤ 10 nM | 100 to 1000 nM |
| Fc1ccc(F)c(CNc2nc(Nc3cnn(CC(F)F)c3)ncc2Cl)c1F [Example I-336] | 10 to 100 nM | 100 to 1000 nM |
| O=C(Cn1cc(Nc2ncc(Cl)c(NCc3cccnc3)n2)cn1)N1CCOCC1 [Example I-337] | 100 to 1000 nM | 1000 to 10000 nM |
| O=C(Cn1cc(Nc2ncc(Cl)c(NCc3ccccn3)n2)cn1)N1CCOCC1 [Example I-338] | 100 to 1000 nM | 1000 to 10000 nM |
| O=C(Cn1cc(Nc2ncc(Cl)c(NCc3cncc(F)c3)n2)cn1)N1CCOCC1 [Example I-339] | 10 to 100 nM | 100 to 1000 nM |
| Cn1cc(Nc2ncc(Cl)c(NCc3c(F)ccc(F)c3F)n2)cn1 [Example I-340] | 10 to 100 nM | 100 to 1000 nM |
| Cc1cnc(Nc2cnn(CC(=O)NC3CC3)c2)nc1NCc1cccc(F)c1F [Example I-341] | 10 to 100 nM | 1000 to 10000 nM |
| Cc1cnc(Nc2cnn(C)c2)nc1NCc1cc(F)cc(F)c1F [Example I-342] | 10 to 100 nM | 10 to 100 nM |
| Cc1cnc(Nc2cnn(C)c2)nc1NCc1cc(F)cc(F)c1 [Example I-343] | 10 to 100 nM | 10 to 100 nM |
| Cc1cnc(Nc2cnn(CC(=O)NC3CC3)c2)nc1NCc1cc(F)cc(F)c1 [Example I-344] | 10 to 100 nM | 100 to 1000 nM |
| COc1c(F)cc(F)cc1CNc1nc(Nc2cnn(CC(=O)NC3CC3)c2)ncc1C [Example I-345] | 10 to 100 nM | 100 to 1000 nM |

| SMILES | IC50 [1] | IC50 [2] |
| --- | --- | --- |
| Cc1cnc(Nc2cnn(CC(=O)NC3CC3)c2)nc1NCc1cc(F)ccc1F [Example I-346] | 10 to 100 nM | 100 to 1000 nM |
| Cc1cnc(Nc2cnn(CC(F)F)c2)nc1NCc1cccc(F)c1F [Example I-347] | 1000 to 10000 nM | 1000 to 10000 nM |
| Cc1cnc(Nc2cnn(CC(=O)N3CCOCC3)c2)nc1NCc1cc(F)cc(F)c1 [Example I-348] | 10 to 100 nM | 10 to 100 nM |
| Cc1cnc(Nc2cnn(CC(F)(F)F)c2)nc1NCc1cc(F)cc(F)c1 [Example I-350] | 1000 to 10000 nM | 1000 to 10000 nM |
| Cc1cnc(Nc2cnn(CC(F)(F)F)c2)nc1NCc1cc(F)cc(F)c1F [Example I-351] | 1000 to 10000 nM | 1000 to 10000 nM |
| COc1c(F)cc(F)cc1CNc1nc(Nc2cnn(CC(F)(F)F)c2)ncc1C [Example I-352] | 1000 to 10000 nM | 1000 to 10000 nM |
| Cc1cnc(Nc2cnn(CC(F)(F)F)c2)nc1NCc1cc(F)ccc1F [Example I-353] | 100 to 1000 nM | 1000 to 10000 nM |
| CNC(=O)Cn1cc(Nc2ncc(C)c(NCc3cc(F)cc(F)c3)n2)cn1 [Example I-354] | 100 to 1000 nM | 100 to 1000 nM |
| CNC(=O)Cn1cc(Nc2ncc(Cl)c(NCc3ccccc3S(=O)(=O)NC)n2)cn1 [Example I-355] | 100 to 1000 nM | 100 to 1000 nM |
| CNC(=O)Cn1cc(Nc2ncc(Cl)c(NCc3ccccc3S(=O)(=O)N(C)C)n2)cn1 [Example I-356] | 100 to 1000 nM | 100 to 1000 nM |
| OCCn1cc(Nc2ncc(Cl)c(NCc3ccccc3CO)n2)cn1 [Example I-357] | 100 to 1000 nM | 1000 to 10000 nM |
| CCOc1ccc(F)c(CNc2nc(Nc3cnn(CCO)c3)ncc2Cl)c1F [Example I-358] | 10 to 100 nM | 100 to 1000 nM |
| CN(C)C(=O)Cn1cc(Nc2ncc(Cl)c(NCc3c(F)ccc(F)c3F)n2)cn1 [Example I-360] | ≤ 10 nM | 100 to 1000 nM |
| CC(CO)n1cc(Nc2ncc(Cl)c(NCc3ccccc3)n2)cn1 (stereo not drawn) [Example I-361] | 100 to 1000 nM | 100 to 1000 nM |
| N#CCOc1cccc(CNc2nc(Nc3cnn(CC(N)=O)c3)ncc2Cl)c1 [Example I-362] | 100 to 1000 nM | 1000 to 10000 nM |
| CS(=O)(=O)c1cccc(CNc2nc(Nc3cnn(CCO)c3)ncc2Cl)c1 [Example I-363] | 100 to 1000 nM | 1000 to 10000 nM |
| CNC(=O)Cn1cc(Nc2ncc(Cl)c(NCc3cccc(OCC#N)c3)n2)cn1 [Example I-364] | 100 to 1000 nM | 1000 to 10000 nM |
| CN(C)C(=O)Cn1cc(Nc2ncc(Cl)c(NCc3cccc(OCC#N)c3)n2)cn1 [Example I-365] | 10 to 100 nM | 1000 to 10000 nM |
| N#CCOc1cccc(CNc2nc(Nc3cnn(CC(=O)N4CCOCC4)c3)ncc2Cl)c1 [Example I-366] | 10 to 100 nM | 1000 to 10000 nM |
